From patent publication US5147878A, “Aminoalkoxyphenyl derivatives, process of preparation and compositions containing the same” (Sanofi, priority 1986, dated 1992) come the findings set out here.

A word on the inhibition in vivo: it is the percentage by which the read-out fell short of the control.

In assay [1] the test system is epinephrine-induced increase in blood-pressure (anti-α effect). The experiment in a line: Antiadrenergic properties: anti-α effect (reduction of epinephrine-induced hypertension). The class given is in vivo. More on the design: key to anti-α effect: +: for a reduction < 50%; ++: for a reduction ≥ 50%; +++: for a reduction sub-total (almost complete reduction). As to conditions: dog. The protocol:
(§1) The object of this test is to determine the capacity of the compounds of the invention for reducing the increase in epinephrine-induced increase in blood-pressure (anti-α effect) and the isoprenaline-induced acceleration in heart rate (anti-β effect), in dogs previously anaesthatized with pentobarbital and atropinized. For each dog, the dose of epinephrine (between 3 and 10 μg/kg) which induced a reproducible increase in the blood-pressure of approximately 133×10^2 Pa and the dose of isoprenaline (1 to 2 μg/kg) which induced a reproducible increase in the heart rate of approximately 70 beats/min. were first determined. The dose of epinephrine and of isoprenaline, determined in this manner, were injected alternately every ten minutes and, after two successive reference responses had been obtained, an amount of the test compound was administered intravenously. The percentage reduction in the hypertension induced by the test compound compared with the reference hypertension previously obtained (approximately 100 mm Hg) was recorded. In both cases, the results of the reduction in blood-pressure or in the heart rate have been expressed as follows: […]

Assay [2] relates to isoprenaline-induced acceleration in heart rate (anti-β effect). The experiment in a line: Antiadrenergic properties: anti-β effect (reduction of isoprenaline-induced tachycardia). The format is in vivo. Further details: key to anti-β effect: +: for a reduction < 50%; ++: for a reduction ≥ 50%; +++: for a reduction sub-total (almost complete reduction). As to conditions: dog. The protocol:
as §1, with “the acceleration of the heart rate” for “the hypertension”, “reference tachycardia measured” for “reference hypertension”, “previously” for “previously obtained”, “(approximately 70 beats)” for “(approximately 100 mm Hg)”

For the next assay, the system named is isolated rat aorta. Kind of assay: Calcium inhibitory properties: contractile response to potassium-induced depolarization on isolated rat aorta. Further details: species or system isolated organ, male Wistar rats. As to conditions: for activity at 0.1 µM / activity at 0.01 µM / activity at 0.001 µM / activity at 1 µM / activity at 10 µM: Rattus norvegicus, 1 h, read-out: % of the maximum contractional effect; for activity at 0.1 µM: 10^-7 M; for activity at 0.01 µM: 10^-8 M; for activity at 0.001 µM: 10^-9 M; for activity at 1 µM: 10^-6 M; for activity at 10 µM: 10^-5 M. The essentials: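 Male Wistar rat aorta strips under 2 g tension in modified Krebs-bicarbonate at 37° C, gassed with CO2/O2; contraction induced by 100 mM KCl potassium-Krebs. Compound incubated 60 min before repeat K+ depolarization; response expressed as % of maximum contraction before compound.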

Where [3] appears, read: Canis lupus familiaris, iv, 0.1 mg/kg i.v.
Where [4] appears, read: Canis lupus familiaris, iv, 0.3 mg/kg i.v.
[5] abbreviates: Canis lupus familiaris, iv, 11.2 mg/kg i.v.
The mark [6] stands for this setting: Canis lupus familiaris, iv, 4.9 mg/kg i.v.
Setting [7] is: Canis lupus familiaris, iv, 5.89 mg/kg i.v.

Structures can show the parent of a compound that is named as a salt.

On to `COc1ccc(CCN(C)CCCCOc2ccc(S(=O)(=O)c3c(C(C)C)cn4ccccc34)cc2)cc1OC` [Ex. 42, 2-Isopropyl-1-[4-{4-[N-methyl-N-(3,4-dimethoxy-β-phenethyl)amino]butyloxy]benzenesulphonyl]indolizine], for which the anti-α effect result in assay [1] (0.1 mg/kg i.v.) was “+++”. Further, in assay [2] (0.1 mg/kg i.v.), the anti-β effect result is reported as “+++”. Besides, in the assay on isolated rat aorta, the activity at 0.1 µM was 21.1%, the activity at 0.01 µM stood at 53.9% and the activity at 0.001 µM was found to be 78.8%.

With `COc1ccc(CNCCCOc2ccc(S(=O)(=O)c3c(C(C)C)cn4ccccc34)cc2)cc1OC` [Ex. 43, 2-Isopropyl-1-{4-[3-(3,4-dimethoxybenzylamino)propyloxy]benzenesulphonyl}indolizine], in assay [1] (0.2 mg/kg i.v.), the anti-α effect entry was “+++”. Also, the anti-β effect result in assay [2] (0.2 mg/kg i.v.) is on record as “+++”. Besides, in the assay with isolated rat aorta, the activity at 0.1 µM was found to be 9.7%, the activity at 0.01 µM came out at 58.4% and the activity at 0.001 µM is 88.7%.

In assay [1] (setting [3]), `CCCCN(CCCOc1ccc(S(=O)(=O)c2c(C(C)C)cn3ccccc23)cc1)CCc1ccc(OC)c(OC)c1` [Ex. 45, 2-Isopropyl-1-[4-{3-[N-n-butyl-N-(3,4-dimethoxy-β-phenethyl)amino]propyloxy}benzenesulphonyl]indolizine acid oxalate] registered an inhibition in vivo at 0.1 mg/kg of at least 50%. The inhibition in vivo at 0.1 mg/kg in assay [2] (setting [3]) is at least 50%. In addition, in the assay on isolated rat aorta, the activity at 0.1 µM was 18.7%, the activity at 0.01 µM was 62.3% and the activity at 0.001 µM was 80.7%.

`COc1cccc(CCN(C)CCCOc2ccc(S(=O)(=O)c3c(C(C)C)cn4ccccc34)cc2)c1` [Ex. 46, 2-Isopropyl-1-[4-{3-[N-methyl-N-(3-methoxy-β-phenethyl)amino]propyloxy}benzenesulphonyl]indolizine acid oxalate]: the anti-α effect entry in assay [1] (0.1 mg/kg i.v.) is listed as “+++”. For the same compound, the anti-β effect entry in assay [2] (0.1 mg/kg i.v.) is “+++”. Besides, in the assay on isolated rat aorta, the activity at 0.1 µM is 4.3%, the activity at 0.01 µM is 49.5% and the activity at 0.001 µM stood at 78.1%.

As for `COc1ccc(CCN(C)CCCOc2ccc(S(=O)(=O)c3c(C(C)C)cn4ccccc34)cc2)cc1` [Ex. 47, 2-Isopropyl-1-[4-{3-[N-methyl-N-(4-methoxy-β-phenethyl)amino]propyloxy}benzenesulphonyl]indolizine acid oxalate], in assay [1] (setting [4]), the inhibition in vivo at 0.3 mg/kg was at least 50%. The compound also returned an inhibition in vivo at 0.3 mg/kg in assay [2] (setting [4]) of under 50%. Also, in the assay with isolated rat aorta, the activity at 0.1 µM worked out at 17.9%, the activity at 0.01 µM was 69.6% and the activity at 0.001 µM amounted to 86.5%.

On to `CCCCN(CCCC)CC(O)COc1ccc(S(=O)(=O)c2c(C(C)C)cn3ccccc23)cc1.Cl` (centres unmarked) [Ex. 49, 2-isopropyl-1-{4-[3-(di-n-butylamino)-2-hydroxypropyloxy]-benzenesulphonyl}indolizine hydrochloride], for which the anti-α effect result in assay [1] (1 mg/kg i.v.) is reported as “+++”. In addition, the inhibition in vivo at 1 mg/kg in assay [2] (Canis lupus familiaris, iv, 1 mg/kg i.v.) was at least 50%. In the assay on isolated rat aorta, the activity at 1 µM amounted to 5.4%, the activity at 0.1 µM amounted to 12.8%, the activity at 0.01 µM came to 67.6% and the activity at 0.001 µM was determined as 80.2%.

`CCCCN(CCCC)CCCOc1ccc(S(=O)(=O)c2c(C3CCCCC3)cn3ccccc23)cc1` [Ex. 51, 2-Cyclohexyl-1-{4-[3-(di-n-butylamino)propyloxy]-benzenesulphonyl}indolizin]: the anti-α effect entry in assay [1] (5.2 mg/kg i.v.) is “+++”. In assay [2] (Canis lupus familiaris, iv, 5.2 mg/kg i.v.), this compound had an inhibition in vivo at 5.2 mg/kg of at least 50%. Further, in the assay with isolated rat aorta, the activity at 1 µM is 58.9% and the activity at 0.1 µM came out at 80.4%.

As to `CCCCN(CCCC)CCCOc1ccc(Sc2c(C(C)C)cn3ccccc23)cc1.O=C(O)C(=O)O` [Ex. 52, 1-{4-[3-(di-n-butylamino)propyloxy]phenylthio}-2-isopropylindolizine oxalate], the anti-α effect result in assay [1] (5.4 mg/kg i.v.) is reported as “+++”. Moreover, the inhibition in vivo at 5.4 mg/kg in assay [2] (Canis lupus familiaris, iv, 5.4 mg/kg i.v.) was at least 50%. In the assay on isolated rat aorta, the activity at 10 µM turned out to be 69.2% and the activity at 1 µM is 81.2%.

In the case of `COc1ccc(CCN(C)CCCOc2ccc(Sc3c(C(C)C)cn4ccccc34)cc2)cc1OC` [Ex. 53, 1-[4-{3-[N-methyl-N-(3,4-dimethoxy-β-phenethyl)amino]propyloxy}phenylthio]-2-isopropylindolizine oxalate], in assay [1] (6.1 mg/kg i.v.), the anti-α effect entry is given as “+++”. This compound displayed an inhibition in vivo at 6.1 mg/kg in assay [2] (Canis lupus familiaris, iv, 6.1 mg/kg i.v.) of under 50%. Besides, in the assay with isolated rat aorta, the activity at 10 µM is 59.8% and the activity at 1 µM turned out to be 75.4%.

Regarding `COc1ccc(CCN(C)CCCOc2ccc(S(=O)(=O)c3c(C(C)C)cc4ccccn34)cc2)cc1OC` [Ex. 55, 2-isopropyl-3-[4-{3-[N-methyl-N-(3,4-dimethoxy-β-phenethyl)amino]propyloxy}benzenesulphonyl]indolizine oxalate], the anti-α effect entry in assay [1] (0.13 mg/kg i.v.) was “+++”. In addition, the inhibition in vivo at 0.13 mg/kg in assay [2] (Canis lupus familiaris, iv, 0.13 mg/kg i.v.) is at least 50%. In the assay with isolated rat aorta, the activity at 0.1 µM amounted to 9.5%, the activity at 0.01 µM is 34.1% and the activity at 0.001 µM came to 68.7%.

The compound `COc1ccc(CCN(C)CCCOc2ccc(S(=O)(=O)c3ccccn3)cc2)cc1OC` [Ex. 59, 2-[4-{3-[N-methyl-N-(3,4-dimethoxy-β-phenethyl)amino]propyloxy}benzenesulphonyl]pyridine oxalate] yielded an inhibition in vivo at 11.2 mg/kg in assay [1] (setting [5]) of at least 50%. For the same compound, the inhibition in vivo at 11.2 mg/kg in assay [2] (setting [5]) is at least 50%. In the assay with isolated rat aorta, the activity at 1 µM came out at 81.7% and the activity at 0.1 µM came to 87.5%. In addition, the “% of the maximum contractional effect” value with isolated rat aorta (head printed "10^-" (exponent missing; first of three columns before 10^-6 M), 60 min) was determined as 33.3%.

Consider `COc1ccc(CCN(C)CCCOc2ccc(S(=O)(=O)c3ccccc3)cc2)cc1OC` [Ex. 63, 4-{3-[N-methyl-N-(3,4-dimethoxy-β-phenethyl)amino]propyloxy}benzenesulphonylbenzene hydrochloride], for which, in assay [1] (10.1 mg/kg i.v.), the anti-α effect result was “+++”. For the same compound, the inhibition in vivo at 10.1 mg/kg in assay [2] (Canis lupus familiaris, iv, 10.1 mg/kg i.v.) is at least 50%. Moreover, in the assay on isolated rat aorta, the activity at 1 µM was determined as 21.4% and the activity at 0.1 µM is 73.7%.

Consider `CCCCN(CCCC)CCCOc1ccc(S(=O)(=O)c2ccccc2)cc1` [Ex. 64, 4-[3-(di-n-butylamino)propyloxy]benzenesulphonylbenzene oxalate], for which the inhibition in vivo at 4.9 mg/kg in assay [1] (setting [6]) was under 50%. Further, in assay [2] (setting [6]), the inhibition in vivo at 4.9 mg/kg is at least 50%. In the assay with isolated rat aorta, the activity at 1 µM came out at 32.4% and the activity at 0.1 µM is 85.3%.

For the compound `CCCCc1nc2ccccc2n1S(=O)(=O)c1ccc(OCCCN(CCCC)CCCC)cc1` [Ex. 65, 2-n-butyl-1-{4-[3-(di-n-butylamino)propyloxy]benzenesulphonyl}benzimidazolacid oxalate], the inhibition in vivo at 5.89 mg/kg in assay [1] (setting [7]) was at least 50%. Also, in assay [2] (setting [7]), the inhibition in vivo at 5.89 mg/kg was at least 50%. Moreover, in the assay with isolated rat aorta, the activity at 1 µM came out at 47.5% and the activity at 0.1 µM came to 64.8%.

`COc1ccc(CCN(C)CCCOc2ccc(S(=O)(=O)c3c(C(C)C)oc4ccccc34)cc2)cc1OC` [Ex. 66, 2-isopropyl-3-[4-{3-[N-methyl-N-(3,4-dimethoxy-β-phenethylamino]propyloxy}benzenesulphonylbenzofuran oxalate]: the anti-α effect entry in assay [1] (0.1 mg/kg i.v.) was “+++”. Moreover, in assay [2] (setting [3]), the inhibition in vivo at 0.1 mg/kg is under 50%. Moreover, in the assay with isolated rat aorta, the activity at 1 µM came to 2.6%, the activity at 0.1 µM worked out at 19.7%, the activity at 0.01 µM was 60.4% and the activity at 0.001 µM is 81.7%.
